{"source": "patent US20150125548A1", "about": "“COMBINATION NUTRITIONAL AND NUTRACEUTICAL PRODUCTS” (Requis Pharmaceuticals Inc., priority 2011, published 2015)", "origin": "cited, not measured here", "key": {"tryptophan hydroxylase": {"target": "tryptophan hydroxylase (Mus musculus, UniProt Q8CGV2)", "sequence (Q8CGV2 whole entry)": "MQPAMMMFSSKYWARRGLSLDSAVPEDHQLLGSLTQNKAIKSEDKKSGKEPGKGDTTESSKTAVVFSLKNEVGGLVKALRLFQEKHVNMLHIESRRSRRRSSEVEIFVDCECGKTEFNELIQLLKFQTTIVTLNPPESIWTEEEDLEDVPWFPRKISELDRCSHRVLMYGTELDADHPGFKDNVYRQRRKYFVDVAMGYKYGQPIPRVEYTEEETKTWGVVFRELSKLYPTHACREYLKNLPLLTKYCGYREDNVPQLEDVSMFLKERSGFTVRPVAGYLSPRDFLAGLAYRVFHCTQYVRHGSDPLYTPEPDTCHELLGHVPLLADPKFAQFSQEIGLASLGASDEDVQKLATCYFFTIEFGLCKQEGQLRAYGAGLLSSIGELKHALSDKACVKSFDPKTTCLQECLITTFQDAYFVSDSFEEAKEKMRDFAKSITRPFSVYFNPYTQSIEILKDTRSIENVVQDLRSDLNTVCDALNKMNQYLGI", "conditions": "10 mM magnesium chloride added together with 1 mM ATP; 100,000 g supernatant from mouse midbrain"}, "[1]": {"conditions": "after absorption"}}, "data": [{"smiles": "[Cl-].[Cl-].[Mg+2]", "note": "[magnesium chloride]", "values": [{"measurement": "increase of enzyme activity above control", "setting": "tryptophan hydroxylase", "result": "50-70%"}]}, {"smiles": "N[C@@H](Cc1c[nH]c2ccccc12)C(=O)O", "note": "[tryptophan, (2S)-2-amino-3-(1H-indol-3-yl)propanoic acid]", "values": [{"measurement": "fraction present in blood as the free amino acid (rest bound to plasma proteins)", "setting": "[1]", "result": "around 20%"}]}]}
